Results on one compound are retold here after patent publication US8771644B2, “Imaging probes” (Sanofi, priority 2007, dated 2014).

The target in the assay is Cath X (Homo sapiens, UniProt Q9UBR2). In words: in vitro activity assay (fluorescence, substrate cleavage) with Cath X. It is filed as biochemical. As to conditions: measurement performed at pH 5.5. As to the method: […] The substrates were solved in DMSO and added to enzyme solution with a final concentration of 50 μM.
Fluorescence was measured with an Tecan SAFIRE II spectrometer (excitation wavelength: 336 nm; emission wavelength: 490 nm; excitation band: 10.0 nm; emission band: 10.0 nm; amplification (manual): 90).

Chain of Cath X (Q9UBR2 62-303): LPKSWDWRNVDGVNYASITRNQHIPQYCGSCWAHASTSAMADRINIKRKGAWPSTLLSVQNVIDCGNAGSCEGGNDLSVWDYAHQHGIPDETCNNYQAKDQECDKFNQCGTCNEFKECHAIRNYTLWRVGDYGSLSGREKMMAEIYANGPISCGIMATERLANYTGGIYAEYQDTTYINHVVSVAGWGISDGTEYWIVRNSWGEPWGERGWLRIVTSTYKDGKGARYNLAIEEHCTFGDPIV

The Vmax is the top rate of the reaction or transport when substrate is in excess. In the case of `CN(C)c1ccc2c(c1)Oc1cc(N(C)C)ccc1C21OC(=O)c2cc(C(=O)NCC[C@H](NC(=O)[C@H](CC3CCCCC3)NC(=O)N3CCOCC3)C(=O)NCCNC(=O)c3ccc(-c4c5ccc(=O)cc-5oc5cc(O)ccc45)c(C(=O)O)c3)ccc21` [Example 10], the Kcat was found to be 287.4 s⁻¹ and the Vmax came out at 7997 nmol/s.
